Patent USRE48461E1, “Modulation of androgen receptor expression” (Ionis Pharmaceuticals, Inc., priority 2012, dated 2021)
Oligonucleotides are written 5' to 3', each unit as a sugar letter and its base; * is a phosphorothioate linkage, no mark a phosphodiester; rarer units and linkages stand in square brackets, end groups in braces. Plain capitals give the bases only. k = constrained ethyl (cEt); [5mC] = 5-methylcytosine; d = 2'-deoxy (DNA)

Legend:
[1] = Liver function markers in cynomolgus monkey plasma; conditions: 40 mg/kg s.c., day 44
Description: Prior to the study, the monkeys were kept in quarantine for a 30-day period, during which the animals were observed daily for general health. The monkeys were 2-4 years old and weighed between 2 and 4 kg. Thirteen groups of four randomly assigned male cynomolgus monkeys each were injected subcutaneously with ISIS oligonucleotide or PBS. PBS solution or ISIS oligonucleotides, at a dose of 40 mg/kg, were administered with a loading regimen consisting of four doses on the first week of the study (days 1, 3, 5, and 7), followed by a maintenance regimen consisting of once weekly administration starting on Day 14 (weeks 2 to 6). Subcutaneous injections were performed in clock-wise rotations at 4 sites on the back; one site per dose. The injection sites were delineated by tattoo, while sedated using ketamine, and were separated by a minimum of 3 cm.
To evaluate the effect of ISIS oligonucleotides on hepatic function, the monkeys were fasted overnight. Approximately, 1.5 mL of blood samples were collected on day 44 from all the study groups. Blood was collected in tubes without anticoagulant for serum separation. The tubes were kept at room temperature for a minimum of 90 min and then centrifuged at 3,000 rpm for 10 min. Levels of various liver function markers were measured using a Toshiba 120FR NEO chemistry analyzer (Toshiba Co., Japan).

[2] = cynomolgus monkey, in vivo, sc, 40 mg/kg
AR mRNA [3] = assay: AR mRNA expression in MDA-MB-453 breast cancer orthotopic model; format: in vivo, human; conditions: Study 2; tumor tissue, normalized to human actin; 50 mg/kg s.c. 5 days per week for 2 weeks
AR mRNA [4] = assay: Antisense inhibition of human AR in HuVEC cells, single concentration (electroporation, qRT-PCR RTS3559); format: cell-based
In short: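 HuVEC cells electroporated with antisense oligonucleotides at a single concentration. AR mRNA quantified by qRT-PCR using human primer-probe set RTS3559 and normalised to total RNA content by RIBOGREEN.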

AR mRNA [5] = assay: AR mRNA in LnCaP cells by free uptake (hAR_LTS00943); format: cell-based, human; conditions: 24 hrs
Description: Cells were plated at a concentration of 4,000 cells/well in 96-well plates. ISIS oligonucleotides, specified in Table 68, were added individually at 0.02 μM, 0.10 μM, 0.50 μM, 2.50 μM, or 10.00 μM. After an incubation period of 24 hrs, mRNA levels were measured using primer probe set hAR_LTS00943.

LMR20 cells = assay: MDV3100 IC50 in LMR20 clone compared to parental LnCaP cells; format: cell-based, human
CWR22-RV1 cells = assay: CWR22-RV1 cell proliferation (CellTiter 96); format: cell-based, human; conditions: RNAiMax, 6 days
Description: (§1) CWR22-RV1 cells were plated and transfected using RNAiMax reagent (Life Technologies) with ISIS oligonucleotides at 1.7 nM, 5.0 nM, 16.7 nM, or 50 nM concentrations. ISIS 347526 was included as a negative control. After a treatment period of 6 days, the target reduction and proliferative capacity of the cancer cells was measured.
(§2) Antisense inhibition of AR full-length mRNA was measured with the RTS3559 primer probe set. The results are presented in Table 63 as percent inhibition relative to non-treated cells. The reduction in V7 splice variant of the AR mRNA was also measured by RT-PCR using SYBR Green staining (Hu, R. et al., Cancer Res. 2009. 69: 16-22). The results are presented in Table 64, as percent reduction, relative to non-treated cells. Cell proliferation was measured with CellTiter 96® AQueous One Solution Cell Proliferation kit (Promega), following the manufacturer's instructions. Results are presented in Table 65 as percent inhibition of proliferation, relative to non-treated cells.

AR mRNA [6] = assay: AR mRNA in C4-2B cells by free uptake (hAR_LTS00943); format: cell-based, human; conditions: 24 hrs; for Percent inhibition of AR full-length mRNA: free uptake
Description: Cells were plated at a concentration of 1,000 cells/well in 96-well plates to measure cell proliferation, and at 4,000 cells/well to measure target reduction. ISIS 549458, ISIS 549372, ISIS 549434, and ISIS 554221 were added individually at 0.04 μM, 0.20 μM, 1.00 μM, or 5.00 μM. After an incubation period of 24 hrs, mRNA levels were measured using hAR_LTS00943.

AR full-length mRNA = AR full-length mRNA in CWR22-RV1 cells (RNAiMax, RTS3559); format: cell-based, human; conditions: 6 days
Description: as §1, §2

[7] = Table 19, 500 nM oligonucleotide, electroporation, approximately 24 hours, relative to untreated control
[8] = Table 20, 500 nM oligonucleotide, electroporation, approximately 24 hours, relative to untreated control
[9] = Table 21, 500 nM oligonucleotide, electroporation, approximately 24 hours, relative to untreated control
[10] = Table 22, 500 nM oligonucleotide, electroporation, approximately 24 hours, relative to untreated control
[11] = Table 23, 500 nM oligonucleotide, electroporation, approximately 24 hours, relative to untreated control
[12] = Table 24, 1,000 nM oligonucleotide, electroporation, approximately 24 hours, relative to untreated control
[13] = Table 25, 1,000 nM oligonucleotide, electroporation, approximately 24 hours, relative to untreated control
[14] = Table 27, 1,000 nM oligonucleotide, electroporation, approximately 24 hours, relative to untreated control
[15] = Table 28, 1,000 nM oligonucleotide, electroporation, approximately 24 hours, relative to untreated control

Molecule	C3 (% of baseline) [2]	CRP [2] [mg/dL]	AR RNA expression inhibited compared to the control group (AR mRNA [3]) [%]	% inhibition (AR mRNA [4]; 500 nM ASO, ~24 h, Table 16) [%]	% inhibition (AR mRNA [4]; 500 nM ASO, ~24 h, Table 17) [%]	% inhibition (AR mRNA [4]; 500 nM ASO, ~24 h, Table 18) [%]	% inhibition (AR mRNA [4]; 1,000 nM ASO, ~24 h, Table 13) [%]	% inhibition (AR mRNA [4]; 1,000 nM ASO, ~24 h, Table 26) [%]	% inhibition (AR mRNA [4]; [7]) [%]	% inhibition (AR mRNA [4]; [8]) [%]	% inhibition (AR mRNA [4]; [9]) [%]	% inhibition (AR mRNA [4]; [10]) [%]	% inhibition (AR mRNA [4]; [11]) [%]	% inhibition (AR mRNA [4]; [12]) [%]	% inhibition (AR mRNA [4]; [13]) [%]	% inhibition (AR mRNA [4]; [14]) [%]	% inhibition (AR mRNA [4]; [15]) [%]	Percent inhibition of AR mRNA (AR mRNA [5]; 0.02 μM) [%]	Percent inhibition of AR mRNA (AR mRNA [5]; 0.1 μM) [%]	Percent inhibition of AR mRNA (AR mRNA [5]; 0.5 μM) [%]	also measured
TTGATTTAATGGTTGC [ISIS 560131] (MOE and (S)-cEt gapmer chemistry, further chemistry not given here) [targets intron 1]	100 % of baseline	1.7	35	–	–	–	–	–	–	–	–	–	–	–	–	–	–	–	–	–	tolerability: liver function markers [1]: well tolerated in terms of the liver function markers
549372 (kA*kA*kG*dT*dT*dG*dT*dA*dG*dT*dA*dG*dT*k[5mC]*kG*k[5mC]) [compound 549372]	–	–	–	47	40	26	64	58	39	23	37	46	25	63	59	70	54	0	0	21	% inhibition (AR mRNA [4]; 500 nM ASO, electroporation, ~24 h, Table 1): 92%; Percent inhibition of AR mRNA (AR mRNA [5]; 10 μM): 78%
CNC(=O)c1ccc(N2C(=S)N(c3ccc(C#N)c(C(F)(F)F)c3)C(=O)C2(C)C)cc1F [MDV3100, 4-(3-(4-cyano-3-(trifluoromethyl)phenyl)-5,5-dimethyl-4-oxo-2-thioxoimidazolidin-1-yl)-2-fluoro-N-methylbenzamide, reference compound]	–	–	–	–	–	–	–	–	–	–	–	–	–	–	–	–	–	–	–	–	increase in IC50 of MDV3100 in LMR20 compared to parental LnCaP cells (LMR20 cells): approximately ten-fold increase in IC50
549458 (kG*kT*kT*dG*dA*dT*dT*dT*dA*dA*dT*dG*dG*kT*kT*kG) [compound 549458]	–	–	–	60	46	48	87	79	50	54	47	39	51	88	76	76	65	4	14	67	% inhibition (AR mRNA [4]; 250 nM ASO, ~24 h, Table 7): 71%; % inhibition (AR mRNA [4]; 500 nM ASO, electroporation, ~24 h, Table 2): 95%; % inhibition (AR mRNA [4]; 500 nM ASO, ~24 h, Table 5): 94%; Percent inhibition of AR mRNA (AR mRNA [5]; 10 μM): 89%
TGATTTAATGGTTGCA [ISIS 569236] (cEt/MOE gapmer chemistry, further chemistry not given here) [targets intron 1]	103 % of baseline	2.6	19	–	–	–	–	–	–	–	–	–	–	–	–	–	–	–	–	–	–
GTTGATTTAATGGTTG (all phosphorothioate, sugars by position not given here; further chemistry not fully specified) [ISIS 549458]	–	–	–	–	–	–	–	–	–	–	–	–	–	–	–	–	–	–	–	–	Percent inhibition of cell proliferation (CWR22-RV1 cells; dose 5.0 nM): 0%; Percent inhibition of cell proliferation (CWR22-RV1 cells; dose 16.7 nM): 17%; Percent inhibition of cell proliferation (CWR22-RV1 cells; dose 50.0 nM): 40%; AR mRNA expression (AR mRNA [6]; free uptake 0.04-5.00 μM): inhibited AR mRNA expression more potently than ISIS 554221; Percent inhibition of AR full-length mRNA (AR mRNA [6]; dose 0.04 μM): 16%; Percent inhibition of AR full-length mRNA (AR mRNA [6]; dose 0.20 μM): 48%; Percent inhibition of AR full-length mRNA (AR mRNA [6]; dose 1.00 μM): 80%; Percent inhibition of AR full-length mRNA (AR mRNA [6]; dose 5.00 μM): 86%; Percent inhibition of AR full-length mRNA (AR full-length mRNA; dose 5.0 nM): 41%; Percent inhibition of AR full-length mRNA (AR full-length mRNA; dose 16.7 nM): 61%; Percent inhibition of AR full-length mRNA (AR full-length mRNA; dose 50.0 nM): 78%
